Test results as given in ChEMBL document CHEMBL5724806, “Unraveling interindividual differences and functional consequences of gut microbial metabolism of immunosuppressants” (2024).

Experiments:
Format in all cases: ADME
[1] = The drug is tested on Alloscardovia omnicolens strain: DSM21503 for biotransformation under anaerobic condition. The drug concentrations were measured over 6 timepoints collected between 0 and 12 hours of incubation by liquid-chromatography-coupled mass spectrometry (LC–MS); parameters: dose 5 uM, timepoint 0, 1.5, 3, 6, 9, 12 hours; conditions: 5 µM
[2] = The drug is tested on Bacteroides thetaiotaomicron strain: DSM2079 for biotransformation under anaerobic condition. The drug concentrations were measured over 6 timepoints collected between 0 and 12 hours of incubation by liquid-chromatography-coupled mass spectrometry (LC–MS); parameters: dose 5 uM, timepoint 0, 1.5, 3, 6, 9, 12 hours; conditions: 5 µM
[3] = The drug is tested on Bacteroides xylanisolvens strain: HM 722 for biotransformation under anaerobic condition. The drug concentrations were measured over 6 timepoints collected between 0 and 12 hours of incubation by liquid-chromatography-coupled mass spectrometry (LC–MS); parameters: dose 5 uM, timepoint 0, 1.5, 3, 6, 9, 12 hours; conditions: 5 µM
[4] = The drug is tested on Blautia hansenii strain: DSM20583 for biotransformation under anaerobic condition. The drug concentrations were measured over 6 timepoints collected between 0 and 12 hours of incubation by liquid-chromatography-coupled mass spectrometry (LC–MS); parameters: dose 5 uM, timepoint 0, 1.5, 3, 6, 9, 12 hours; conditions: 5 µM
[5] = The drug is tested on Clostridium scindens strain: DSM5676 for biotransformation under anaerobic condition. The drug concentrations were measured over 6 timepoints collected between 0 and 12 hours of incubation by liquid-chromatography-coupled mass spectrometry (LC–MS); parameters: dose 5 uM, timepoint 0, 1.5, 3, 6, 9, 12 hours; conditions: 5 µM
[6] = The drug is tested on Eubacterium eligens strain: DSM3376 for biotransformation under anaerobic condition. The drug concentrations were measured over 6 timepoints collected between 0 and 12 hours of incubation by liquid-chromatography-coupled mass spectrometry (LC–MS); parameters: dose 5 uM, timepoint 0, 1.5, 3, 6, 9, 12 hours; conditions: lachnospira eligens, 5 µM
[7] = The drug is tested on Eubacterium hallii strain: DSM3353 for biotransformation under anaerobic condition. The drug concentrations were measured over 6 timepoints collected between 0 and 12 hours of incubation by liquid-chromatography-coupled mass spectrometry (LC–MS); parameters: dose 5 uM, timepoint 0, 1.5, 3, 6, 9, 12 hours; conditions: anaerobutyricum hallii, 5 µM
[8] = The drug is tested on Faecalibacterium prausnitzii strain: DSM17677 for biotransformation under anaerobic condition. The drug concentrations were measured over 6 timepoints collected between 0 and 12 hours of incubation by liquid-chromatography-coupled mass spectrometry (LC–MS); parameters: dose 5 uM, timepoint 0, 1.5, 3, 6, 9, 12 hours; conditions: faecalibacterium duncaniae, 5 µM
[9] = The drug is tested on Lactobacillus gasseri strain: DSM20243 for biotransformation under anaerobic condition. The drug concentrations were measured over 6 timepoints collected between 0 and 12 hours of incubation by liquid-chromatography-coupled mass spectrometry (LC–MS); parameters: dose 5 uM, timepoint 0, 1.5, 3, 6, 9, 12 hours; conditions: 5 µM
[10] = The drug is tested on Roseburia intestinalis strain: DSM14610 for biotransformation under anaerobic condition. The drug concentrations were measured over 6 timepoints collected between 0 and 12 hours of incubation by liquid-chromatography-coupled mass spectrometry (LC–MS); parameters: dose 5 uM, timepoint 0, 1.5, 3, 6, 9, 12 hours; conditions: 5 µM
[11] = The drug is tested on Streptococcus mitis strain: DSM12643 for biotransformation under anaerobic condition. The drug concentrations were measured over 6 timepoints collected between 0 and 12 hours of incubation by liquid-chromatography-coupled mass spectrometry (LC–MS); parameters: dose 5 uM, timepoint 0, 1.5, 3, 6, 9, 12 hours; conditions: 5 µM
[12] = The drug is tested on Enterococcus faecalis strain: ATCC29212 for biotransformation under anaerobic condition. The drug concentrations were measured over 6 timepoints collected between 0 and 12 hours of incubation by liquid-chromatography-coupled mass spectrometry (LC–MS); parameters: dose 5 uM, timepoint 0, 1.5, 3, 6, 9, 12 hours; conditions: 5 µM
[13] = The drug is tested on Akkermansia muciniphila strain: DSM22959 for biotransformation under anaerobic condition. The drug concentrations were measured over 6 timepoints collected between 0 and 12 hours of incubation by liquid-chromatography-coupled mass spectrometry (LC–MS); parameters: dose 5 uM, timepoint 0, 1.5, 3, 6, 9, 12 hours; conditions: 5 µM
[14] = The drug is tested on Actinomyces naeslundi strain: DSM43013 for biotransformation under microaerobic condition. The drug concentrations were measured over 6 timepoints collected between 0 and 12 hours of incubation by liquid-chromatography-coupled mass spectrometry (LC–MS); parameters: dose 5 uM, timepoint 0, 1.5, 3, 6, 9, 12 hours; conditions: actinomyces naeslundii, 5 µM
[15] = The drug is tested on Capnocytophaga ochracea strain: DSM7271 for biotransformation under microaerobic condition. The drug concentrations were measured over 6 timepoints collected between 0 and 12 hours of incubation by liquid-chromatography-coupled mass spectrometry (LC–MS); parameters: dose 5 uM, timepoint 0, 1.5, 3, 6, 9, 12 hours; conditions: 5 µM
[16] = The drug is tested on Lactobacillus reuteri strain: DSM20016 for biotransformation under microaerobic condition. The drug concentrations were measured over 6 timepoints collected between 0 and 12 hours of incubation by liquid-chromatography-coupled mass spectrometry (LC–MS); parameters: dose 5 uM, timepoint 0, 1.5, 3, 6, 9, 12 hours; conditions: limosilactobacillus reuteri, 5 µM
[17] = The drug is tested on Lactobacillus ruminis strain: ATCC25644 for biotransformation under microaerobic condition. The drug concentrations were measured over 6 timepoints collected between 0 and 12 hours of incubation by liquid-chromatography-coupled mass spectrometry (LC–MS); parameters: dose 5 uM, timepoint 0, 1.5, 3, 6, 9, 12 hours; conditions: ligilactobacillus ruminis, 5 µM
[18] = The drug is tested on Streptococcus anginosus strain: DSM20563 for biotransformation under microaerobic condition. The drug concentrations were measured over 6 timepoints collected between 0 and 12 hours of incubation by liquid-chromatography-coupled mass spectrometry (LC–MS); parameters: dose 5 uM, timepoint 0, 1.5, 3, 6, 9, 12 hours; conditions: 5 µM
[19] = The drug is tested on the gut metagenome community of A-06 with ENA study accession number: PRJEB31790 for biotransformation under anaerobic condition. The drug concentrations were measured over 7 timepoints collected between 0 and 12 hours of incubation by liquid-chromatography-coupled mass spectrometry (LC–MS); parameters: dose 5 uM, timepoint 0, 0.75, 1.5, 3, 6, 9, 12 hours; conditions: 5 µM
[20] = The drug is tested on the gut metagenome community of P-02 with ENA study accession number: PRJEB31790 for biotransformation under anaerobic condition. The drug concentrations were measured over 7 timepoints collected between 0 and 12 hours of incubation by liquid-chromatography-coupled mass spectrometry (LC–MS); parameters: dose 5 uM, timepoint 0, 0.75, 1.5, 3, 6, 9, 12 hours; conditions: 5 µM
[21] = The drug is tested on the gut metagenome community of P-04 with ENA study accession number: PRJEB31790 for biotransformation under anaerobic condition. The drug concentrations were measured over 7 timepoints collected between 0 and 12 hours of incubation by liquid-chromatography-coupled mass spectrometry (LC–MS); parameters: dose 5 uM, timepoint 0, 0.75, 1.5, 3, 6, 9, 12 hours; conditions: 5 µM
[22] = The drug is tested on the gut metagenome community of T-02 with ENA study accession number: PRJEB31790 for biotransformation under anaerobic condition. The drug concentrations were measured over 7 timepoints collected between 0 and 12 hours of incubation by liquid-chromatography-coupled mass spectrometry (LC–MS); parameters: dose 5 uM, timepoint 0, 0.75, 1.5, 3, 6, 9, 12 hours; conditions: 5 µM
[23] = The drug is tested on the gut metagenome community of A-06 with ENA study accession number: PRJEB31790 for biotransformation under microaerobic condition. The drug concentrations were measured over 7 timepoints collected between 0 and 12 hours of incubation by liquid-chromatography-coupled mass spectrometry (LC–MS); parameters: dose 5 uM, timepoint 0, 0.75, 1.5, 3, 6, 9, 12 hours; conditions: 5 µM
[24] = The drug is tested on the gut metagenome community of P-02 with ENA study accession number: PRJEB31790 for biotransformation under microaerobic condition. The drug concentrations were measured over 7 timepoints collected between 0 and 12 hours of incubation by liquid-chromatography-coupled mass spectrometry (LC–MS); parameters: dose 5 uM, timepoint 0, 0.75, 1.5, 3, 6, 9, 12 hours; conditions: 5 µM
[25] = The drug is tested on the gut metagenome community of T-03 with ENA study accession number: PRJEB31790 for biotransformation under microaerobic condition. The drug concentrations were measured over 7 timepoints collected between 0 and 12 hours of incubation by liquid-chromatography-coupled mass spectrometry (LC–MS); parameters: dose 5 uM, timepoint 0, 0.75, 1.5, 3, 6, 9, 12 hours; conditions: 5 µM
[26] = The drug is tested on the gut metagenome community of T-05 with ENA study accession number: PRJEB31790 for biotransformation under microaerobic condition. The drug concentrations were measured over 7 timepoints collected between 0 and 12 hours of incubation by liquid-chromatography-coupled mass spectrometry (LC–MS); parameters: dose 5 uM, timepoint 0, 0.75, 1.5, 3, 6, 9, 12 hours; conditions: 5 µM

| Compound | Bacterial Biotransformation [1] | Bacterial Biotransformation [2] | Bacterial Biotransformation [3] | Bacterial Biotransformation [4] | Bacterial Biotransformation [5] | Bacterial Biotransformation [6] | Bacterial Biotransformation [7] | Bacterial Biotransformation [8] | Bacterial Biotransformation [9] | Bacterial Biotransformation [10] | Bacterial Biotransformation [11] | Bacterial Biotransformation [12] | Bacterial Biotransformation [13] | Bacterial Biotransformation [14] | Bacterial Biotransformation [15] | Bacterial Biotransformation [16] | Bacterial Biotransformation [17] | Bacterial Biotransformation [18] | Bacterial Biotransformation [19] | Bacterial Biotransformation [20] | also measured |
| --- | --- | --- | --- | --- | --- | --- | --- | --- | --- | --- | --- | --- | --- | --- | --- | --- | --- | --- | --- | --- | --- |
| CO[C@H]1C[C@@H]2CC[C@@H](C)[C@@](O)(O2)C(=O)C(=O)N2CCCC[C@H]2C(=O)O[C@H]([C@H](C)C[C@@H]2CC[C@@H](OCCO)[C@H](OC)C2)CC(=O)[C@H](C)/C=C(\C)[C@@H](O)[C@@H](OC)C(=O)[C@H](C)C[C@H](C)/C=C/C=C/C=C/1C [EVEROLIMUS] | Compound NOT metabolized | Compound NOT metabolized | Compound NOT metabolized | Compound metabolized | Compound metabolized | Compound NOT metabolized | Compound metabolized | Compound NOT metabolized | Compound NOT metabolized | Compound metabolized | Compound NOT metabolized | Compound metabolized | Compound NOT metabolized | Compound NOT metabolized | Compound NOT metabolized | Compound NOT metabolized | Compound NOT metabolized | Compound NOT metabolized | Compound metabolized | Compound NOT metabolized | Bacterial Biotransformation [21]: Compound NOT metabolized; Bacterial Biotransformation [22]: Compound metabolized; Bacterial Biotransformation [23]: Compound metabolized; Bacterial Biotransformation [24]: Compound NOT metabolized; Bacterial Biotransformation [25]: Compound NOT metabolized; Bacterial Biotransformation [26]: Compound NOT metabolized |
| NS(=O)(=O)c1cc(C(=O)O)c(NCc2ccco2)cc1Cl [FUROSEMIDE] | Compound NOT metabolized | Compound NOT metabolized | Compound NOT metabolized | Compound NOT metabolized | Compound NOT metabolized | Compound NOT metabolized | Compound NOT metabolized | Compound NOT metabolized | Compound NOT metabolized | Compound NOT metabolized | Compound NOT metabolized | Compound NOT metabolized | Compound NOT metabolized | Compound NOT metabolized | Compound NOT metabolized | Compound NOT metabolized | Compound NOT metabolized | Compound NOT metabolized | Compound NOT metabolized | Compound NOT metabolized | Bacterial Biotransformation [21]: Compound NOT metabolized; Bacterial Biotransformation [22]: Compound NOT metabolized; Bacterial Biotransformation [23]: Compound NOT metabolized; Bacterial Biotransformation [24]: Compound NOT metabolized; Bacterial Biotransformation [25]: Compound NOT metabolized; Bacterial Biotransformation [26]: Compound NOT metabolized |
| C[C@]12CCC(=O)C=C1CC[C@@H]1[C@@H]2[C@@H](O)C[C@@]2(C)[C@H]1CC[C@]2(O)C(=O)CO [HYDROCORTISONE] | Compound NOT metabolized | Compound NOT metabolized | Compound NOT metabolized | Compound NOT metabolized | Compound metabolized | Compound NOT metabolized | Compound NOT metabolized | Compound NOT metabolized | Compound NOT metabolized | Compound NOT metabolized | Compound NOT metabolized | Compound NOT metabolized | Compound NOT metabolized | Compound NOT metabolized | Compound NOT metabolized | Compound NOT metabolized | Compound NOT metabolized | Compound NOT metabolized | Compound metabolized | Compound NOT metabolized | Bacterial Biotransformation [21]: Compound metabolized; Bacterial Biotransformation [22]: Compound metabolized; Bacterial Biotransformation [23]: Compound metabolized; Bacterial Biotransformation [24]: Compound NOT metabolized; Bacterial Biotransformation [25]: Compound NOT metabolized; Bacterial Biotransformation [26]: Compound metabolized |
